Laboratory results published in US11633512B2, “Method for disinfecting soils or other agricultural growing media” (Agrozono, S.L., priority 2017, dated 2023).
Read-outs that look alike come from different tables or passages of the source.

How the values were obtained:
nematodes = assay: Evolution of nematodes in soil after ozone treatment and inoculation of microorganisms; assay type: in vivo; conditions: 5.5 ppm of ozone for 2 hours; before treatment 480 juveniles/100 cc of earth
[1] = cited from earlier work
coliform bacteria = conditions: cited from earlier work
microorganisms = conditions: cited from earlier work
nematodes (Meloidogyne) = assay: Disinfection of nematodes in Padrón pepper crop (greenhouse); assay type: in vivo, Meloidogyne sp.
Procedure: On a 500 m^2 surface of a greenhouse, with a water consumption of 3000 l/h, the disinfection with ozone was performed at a dose of 6 ppm, revising with the REDOX readings that a reading of 1000 mV is obtained in the farthest drip emitters, starting from a value of 185 mV in the irrigation water without ozone.
When the treatment ends, the inoculation of the microorganism formula (1) is performed (see example 1). Seven days after performing the treatment, samples of earth are taken to see the level of nematode infestation, observing a decrease of 90% of the population.

[2] = test system: Erwinia amylovora and Clavibacter michiganensis; assay: Disinfection of infected soil in containers: survival of phytopathogenic bacteria; assay type: in vivo
Procedure: In order to achieve the aforementioned objectives, soil without crops was infected with the phytopathogenic species Sclerotinia, Fusarium, Erwinia, Phytophthora and Clavibacter. The assay was performed in Lorca (Murcia). It took place in open air in bins with soil without crops and wherein tomatoes, peppers and melons had been grown previously. After performing the first application of the method of the present invention, tomato plants, Lycopersicum esculentum, were transplanted, the response of the plants to the treatments being evaluated.
The microbiological content of the soil was evaluated at different depths: 20, 40 and 60 cm., before and after the applications.
Containers were installed with a known volume of 1000 l (1×1×1 m) in field. Moreover, a medium proceeding from a greenhouse with melons, peppers and tomatoes having been grown there previously was selected and homogenised. Subsequently, the containers were filled with this medium.
In the laboratory, the following species were cultivated in vitro: • Phytopathogenic bacteria: Erwinia amylovora and Clavibacter michiganensis • Phytopathogenic fungi: Sclerotinia sp, Fusarium oxysporum and Phytophthora citrophthora
Each microorganism was grown in liquid medium until reaching a concentration of 10^8 ufc/ml. For each of the bins, 1 litre of microbial solution was prepared.
Then the pathogenic microorganisms were inoculated in the medium, periodic irrigations were performed until reaching the capacity of the medium, samples were taken at different depths (20 cm, 40 cm and 60 cm) and the phytopathogens were counted in said samples, in order to verify the permanence and presence of phytopathogens in the soil.
A first application of the disinfection method with ozone was performed. To do so, the ozonation equipment was inserted into the irrigation system and the parameters of said equipment were adjusted in order to achieve ozonated water with at least 2 ppm of dissolved ozone. Subsequently, the soil was left to rest for 30 min and the tomato plants, Lycopersicum esculentum, were transplanted. Subsequently, a second application of the disinfection method with ozone was performed in the same conditions indicated previously and, after letting the treated soil rest for 30 min, the microorganism formula (1) was inoculated.
In order to analyse the effect of the treatment on the disinfection of the soil, samples were taken at different depths (20 cm, 40 cm and 60 cm) and on different dates, and the microbial load in each of the samples was analysed.
In this section the data obtained is described. As explained in the assay protocol, soil samples were taken at different depths (20 cm, 40 cm and 60 cm) and quality controls were performed quantifying the number of pathogenic fungi and bacteria present.

[3] = test system: Sclerotinia sp, Fusarium oxysporum and Phytophthora citrophthora; assay: Disinfection of infected soil in containers: survival of phytopathogenic fungi; assay type: in vivo; parameters: reduction of pathogenic fungi: concentration or dose not given beside the values
[4] = test system: tomato plants, Lycopersicum esculentum; assay: Phytotoxicity and plant development of tomato plants transplanted into treated soil; assay type: in vivo
Procedure: Afterwards, as mentioned earlier, once the first disinfection was finished, tomato seedlings were transplanted into the bins in order to evaluate the “residual effect” of the treatment. Subsequently, the study of the plant development of the plants was performed.
After the first application of the disinfection method, on 19 Sep. 2014, 2 tomato plants were transplanted per container. The residual effect of the ozone was evaluated.
Throughout the assay, the parameters evaluated were: • Flow rate and ppm ozone at the outlet. • Microbial evaluation of the soil (t=0; t=7 days and t=30 days). • Relationship of the depth with the possible fungicidal effect. • Having established the tomato plants, it was evaluated if the treatments caused phytotoxicity.
The parameters that will be observed in the crop will be the appearance of necrosis and burning on leaves and fruits. • Plant development of the crop.
After the first application of the treatment with ozone, 2 tomato plants were transplanted into each of the containers. The growth of the plants was evaluated for three months, ending the analysis of this parameter on 2 January due to frost in the area (see FIGS. 5a and 5b).

## O=[O+][O-] [ozone]
nematodes
  presence of juveniles after the treatment with ozone: 44 /100 cc of earth
[1]; water temperature of 15° C.
  useful life of ozone: 30 min
[1]; water temperature of 25° C.
  useful life of ozone: 15 min
[1]; water without organic matter, pH of 7, water temperature of 15° C.
  time until degradation of the ozone into oxygen: about 30 minutes
Coliform bacteria
  time to kill 99% of 60,000 coliform bacteria/ml: 2.8 s
microorganisms
  application period necessary for disinfection: 5 s
  time needed in order to eliminate microorganisms: four
Nematodes (Meloidogyne); ozonated irrigation, crop in full production, before disinfection 88 juveniles/100 cc soil
  Meloidogyne sp. after the disinfection: 8 juveniles/1 cc soil
Nematodes (Meloidogyne); ozone 6 ppm, then inoculation of microorganism formula (1), soil samples seven days after treatment
  decrease of the nematode population: 90%
[2]; after first application of ozonated water
  mortality of pathogenic mesophilic bacteria: less than 50%
[2]; after second application
  reduction of pathogenic mesophilic bacteria: 50%
[2]; after second application, listed as ozonated water
  reduction of pathogenic mesophilic bacteria: at least 50%
[2]; application 1, all depths tested except 60 cm
  reduction of populations of pathogenic bacteria compared with control: less than 50%
[2]; application 2
  completeness of reduction of pathogenic bacteria: the reduction was not complete
[2]; second application, depth 60 cm
  reduction of pathogenic mesophilic bacteria: 60%
[3]; application 1, 24 hours after application, depth 20 cm
  reduction of pathogenic fungi: 100%
[3]; application 1, 24 hours after application, depth 60 cm
  reduction of pathogenic fungi: 100%
[3]; application 2, depth 20 cm
  reduction of pathogenic fungi: 100%
[3]; application 2, depth 20 cm, 30 days
  fungi present a month after application: traces of fungi appearing a month later
[3]; application 2, depth 40 cm, effect prolonged for 30 days
  reduction of pathogenic fungi: 100%
[3]; application 2, depth 60 cm, effect prolonged for 30 days
  reduction of pathogenic fungi: 100%
[3]; overall result of the soil assays, ozonated water at least 2 ppm
  disinfection against the phytopathogenic fungi tested: 100%
[4]; plants transplanted after first application into infected, treated soil
  plant development of tomato plants: vigorous plant development
[4]; three months after the transplant
  phytotoxicity: growth and plant development: normal growth and plant development
